Measurements as given in the kinase profiling compilation of Christmann-Franck et al. (2016).

What was measured:
Assay in all cases: radiometric filter-binding kinase assay, Kinaseprofiler
PDPK1 (human) = PDPK1 (human) (UniProt O15530); details: ATP 10 µM
INSR (human) = INSR (human) (UniProt P06213); details: compound 10.0 µM; ATP 45 µM
HIPK3 (human) = HIPK3 (human) (UniProt Q9H422); details: compound 10.0 µM; ATP 15 µM
Sequence of HIPK3 (human) (Q9H422 whole entry, looked up): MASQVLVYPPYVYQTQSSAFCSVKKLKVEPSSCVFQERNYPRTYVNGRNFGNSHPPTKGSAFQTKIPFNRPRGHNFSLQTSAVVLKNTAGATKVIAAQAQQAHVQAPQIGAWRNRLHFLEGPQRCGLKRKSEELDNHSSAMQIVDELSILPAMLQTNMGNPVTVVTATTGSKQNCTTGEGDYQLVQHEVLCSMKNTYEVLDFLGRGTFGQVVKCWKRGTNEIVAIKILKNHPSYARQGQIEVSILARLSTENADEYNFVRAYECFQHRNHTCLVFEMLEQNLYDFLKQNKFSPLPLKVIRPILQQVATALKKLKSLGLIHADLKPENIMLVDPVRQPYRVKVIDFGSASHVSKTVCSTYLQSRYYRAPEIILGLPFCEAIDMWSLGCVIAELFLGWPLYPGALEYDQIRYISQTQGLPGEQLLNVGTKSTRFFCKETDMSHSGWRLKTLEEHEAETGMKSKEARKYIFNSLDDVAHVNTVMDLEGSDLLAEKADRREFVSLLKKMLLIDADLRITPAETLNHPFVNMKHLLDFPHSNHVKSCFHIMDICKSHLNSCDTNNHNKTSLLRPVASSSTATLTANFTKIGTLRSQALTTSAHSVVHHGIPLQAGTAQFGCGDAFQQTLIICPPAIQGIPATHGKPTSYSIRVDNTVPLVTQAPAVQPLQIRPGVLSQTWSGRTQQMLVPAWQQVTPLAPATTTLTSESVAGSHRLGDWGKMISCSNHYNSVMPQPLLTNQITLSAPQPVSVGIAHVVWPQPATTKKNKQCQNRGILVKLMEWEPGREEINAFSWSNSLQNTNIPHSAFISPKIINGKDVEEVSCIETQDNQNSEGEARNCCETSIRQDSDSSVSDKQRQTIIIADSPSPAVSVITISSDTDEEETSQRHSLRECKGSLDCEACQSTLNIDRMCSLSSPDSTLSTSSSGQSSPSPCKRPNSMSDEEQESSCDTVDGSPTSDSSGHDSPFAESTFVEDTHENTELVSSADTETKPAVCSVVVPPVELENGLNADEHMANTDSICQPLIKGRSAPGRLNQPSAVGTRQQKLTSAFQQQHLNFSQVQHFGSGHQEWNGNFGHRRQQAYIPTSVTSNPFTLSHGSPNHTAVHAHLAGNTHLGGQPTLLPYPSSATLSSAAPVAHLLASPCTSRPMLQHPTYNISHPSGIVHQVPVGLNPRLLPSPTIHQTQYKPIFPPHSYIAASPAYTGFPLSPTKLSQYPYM

Sequence of PDPK1 (human) (O15530 whole entry, looked up): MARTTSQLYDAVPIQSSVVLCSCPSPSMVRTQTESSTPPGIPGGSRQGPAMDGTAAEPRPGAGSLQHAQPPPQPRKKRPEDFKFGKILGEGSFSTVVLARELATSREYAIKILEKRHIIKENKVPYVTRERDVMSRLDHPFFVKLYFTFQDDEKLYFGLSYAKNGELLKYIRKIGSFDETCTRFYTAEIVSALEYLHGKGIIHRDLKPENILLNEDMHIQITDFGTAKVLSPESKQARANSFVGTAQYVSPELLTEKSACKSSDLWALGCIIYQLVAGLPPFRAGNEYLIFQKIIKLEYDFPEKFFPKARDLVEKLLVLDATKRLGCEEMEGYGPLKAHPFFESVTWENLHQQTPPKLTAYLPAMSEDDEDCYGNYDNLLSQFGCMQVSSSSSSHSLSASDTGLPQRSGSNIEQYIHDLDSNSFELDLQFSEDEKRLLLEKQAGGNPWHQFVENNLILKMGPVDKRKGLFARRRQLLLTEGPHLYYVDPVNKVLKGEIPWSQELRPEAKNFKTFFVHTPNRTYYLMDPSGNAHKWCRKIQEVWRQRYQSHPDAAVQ
Sequence of INSR (human) (P06213 whole entry, looked up): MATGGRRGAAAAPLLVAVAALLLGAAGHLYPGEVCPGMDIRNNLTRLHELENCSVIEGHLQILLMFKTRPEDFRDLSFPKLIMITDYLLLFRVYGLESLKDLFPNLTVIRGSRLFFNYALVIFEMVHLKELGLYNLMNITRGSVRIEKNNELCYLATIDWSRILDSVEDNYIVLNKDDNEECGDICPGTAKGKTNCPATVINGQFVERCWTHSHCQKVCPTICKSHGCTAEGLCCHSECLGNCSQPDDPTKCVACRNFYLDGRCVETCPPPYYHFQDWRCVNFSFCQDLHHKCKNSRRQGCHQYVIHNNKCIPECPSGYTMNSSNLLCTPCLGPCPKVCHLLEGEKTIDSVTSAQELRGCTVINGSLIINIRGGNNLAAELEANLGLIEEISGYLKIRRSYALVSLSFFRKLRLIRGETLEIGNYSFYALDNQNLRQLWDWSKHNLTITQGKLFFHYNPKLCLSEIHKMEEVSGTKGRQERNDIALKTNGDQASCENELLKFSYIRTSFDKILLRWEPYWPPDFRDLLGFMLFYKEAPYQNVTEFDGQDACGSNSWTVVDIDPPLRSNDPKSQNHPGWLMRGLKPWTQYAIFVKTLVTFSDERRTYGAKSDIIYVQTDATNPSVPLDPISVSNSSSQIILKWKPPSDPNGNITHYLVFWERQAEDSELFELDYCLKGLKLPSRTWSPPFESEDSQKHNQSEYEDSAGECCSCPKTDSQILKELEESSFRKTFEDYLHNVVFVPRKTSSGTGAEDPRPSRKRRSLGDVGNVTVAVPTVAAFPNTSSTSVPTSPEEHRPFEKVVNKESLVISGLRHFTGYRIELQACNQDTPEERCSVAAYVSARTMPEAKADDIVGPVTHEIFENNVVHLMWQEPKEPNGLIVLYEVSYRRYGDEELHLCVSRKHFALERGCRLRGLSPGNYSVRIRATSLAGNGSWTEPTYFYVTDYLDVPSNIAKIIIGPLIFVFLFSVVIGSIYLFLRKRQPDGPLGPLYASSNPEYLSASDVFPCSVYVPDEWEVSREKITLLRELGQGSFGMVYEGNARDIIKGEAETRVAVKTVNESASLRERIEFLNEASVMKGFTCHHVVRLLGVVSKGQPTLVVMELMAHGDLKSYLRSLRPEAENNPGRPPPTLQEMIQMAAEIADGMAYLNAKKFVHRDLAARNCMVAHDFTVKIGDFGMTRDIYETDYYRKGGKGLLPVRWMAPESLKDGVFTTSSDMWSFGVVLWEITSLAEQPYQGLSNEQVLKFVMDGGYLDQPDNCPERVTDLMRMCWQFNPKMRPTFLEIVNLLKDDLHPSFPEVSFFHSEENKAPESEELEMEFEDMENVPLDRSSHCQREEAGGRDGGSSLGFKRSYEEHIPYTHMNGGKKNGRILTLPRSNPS

Q: For `COC(=O)[C@]1(O)C[C@@H]2O[C@@]1(C)n1c3ccccc3c3c4c(c5c6ccccc6n2c5c31)C(=O)NC4`, which residual activity (PDPK1 (human); compound 1.0 µM) is on record?
A: Its residual activity is -1%.

Q: What about the residual activity (PDPK1 (human); compound 10.0 µM) of the same molecule?
A: Its residual activity is 0%.

Q: What about the residual activity (INSR (human)) of the same molecule?
A: Its residual activity is 0%.

Q: What about the residual activity (HIPK3 (human)) of the same molecule?
A: Its residual activity is -4%.
